Earlier results in patent US20120093797A1, “COMBINED USE OF CREATINE PHOSPHATE AND CREATINE PHOSPHOKINASE FOR TREATMENT OF ARTERIOSCLEROSIS” (ARTCELL INVEST LTD., priority 2009, published 2012).

CN(CC(=O)O)C(=N)NP(=O)(O)O [CP, 2-[(amino-phosphonoimino-methyl)-methyl-amino]acetic acid]
Half-life of CP: 4 to 7 min
